Measured values: patent publication US20020049223A1, “Quinoline and naphthyridine carboxylic acid antibacterials” (priority 1999, published 2002)

How the values were obtained:
Assay in all cases: Assay B: in vitro antibacterial activity, broth microdilution MIC (NCCLS)
Type in all cases: cell-based
[1] = system: Enterococcus faecalis PIU 1967; settings: Table 2, Assay B, cation-adjusted Mueller Hinton broth, 35° C., 16 to 20 hr; code B = Enterococcus faecalis PIU 1967; unit assumed
Method: (§1) Assay B. Determination of Biological Activity In Vitro Assay of Antibacterial Activity
(§2) Representative compounds of the invention were assayed in vitro for antibacterial activity. The susceptibilities of aerobic, nonfastidious species were determined visually by broth microdilution as described by the National Committee for Clinical Laboratory Standards (NCCLS) (National Committee for Clinical Laboratory Standards. 1997. Methods for dilution antimicrobial susceptibility tests for bacteria that grow aerobically. Approved standard M7-A4. National Committee for Clinical Laboratory Standards. Wayne, Pa.). In brief, serial two-fold dilutions of test compounds were made in cation-adjusted Mueller Hinton broth at two-times the final concentration. Inocula were prepared from overnight cultures of test strains. Tests were inoculated with a suspension of bacteria in Mueller Hinton broth to achieve a final density of approximately 5×10^5 CFU/mL. Tests were incubated at 35° C. in ambient air for 16 to 20 hr. Minimum Inhibitory Concentrations (MICs) were determined as the lowest drug concentration completely inhibiting growth. Ciprofloxacin was included as a control. For testing S. pneumoniae, the cation-adjusted Mueller Hinton broth was supplemented with 3% lysed horse blood and the incubation period was extended to 20 to 24 hr. For testing H. influenzae, the cation-adjusted Mueller Hinton broth was supplemented with 5 g/L yeast extract, […] and 15 mg/L NAD and incubation was extended to 20 to 24 hr..

[2] = system: Escherichia coli JUHL; settings: Table 2, Assay B, cation-adjusted Mueller Hinton broth, 35° C., 16 to 20 hr; code D = Escherichia coli JUHL; unit assumed
Method: as §1, §2

[3] = system: Haemophilus influenzae DILL AMP R; settings: Table 2, Assay B, Mueller Hinton broth with yeast extract, hematin and NAD, 20 to 24 hr; code E = Haemophilus influenzae DILL AMP R; unit assumed
Method: as §1, §2

[4] = system: Staphylococcus aureus ATCC 6538P; settings: Table 2, Assay B, cation-adjusted Mueller Hinton broth, 35° C., 16 to 20 hr; code A = Staphylococcus aureus ATCC 6538P; unit assumed
Method: as §1, §2

[5] = system: Streptococcus pneumoniae ATCC 6303; settings: Table 2, Assay B, Mueller Hinton broth with 3% lysed horse blood, 20 to 24 hr; code F = Streptococcus pneumoniae ATCC 6303; unit assumed
Method: as §1, §2

SMILES	Antibacterial Activity (MIC's), B [1]	Antibacterial Activity (MIC's), D [2]	Antibacterial Activity (MIC's), E [3]	Antibacterial Activity (MIC's), A [4]	Antibacterial Activity (MIC's), F [5]
COc1c(-c2cc3c(s2)CCCC3=NN2CCOCC2)ccc2c(=O)c(C(=O)O)cn(C3CC3)c12 [Example 68, 1-cyclopropyl-8-methoxy-7-((4E/Z)-4-(4-morpholinvlimino)-4,5,6,7-tetrahydro-1-benzothien-2-yl)-4-oxo-1,4-dihydro-3-quinolinecarboxylic acid]	0.125 mg/L	0.5 mg/L	0.06 mg/L	0.008 mg/L	0.125 mg/L
COc1c(-c2cc3c(s2)CCC(CN)C3)ccc2c(=O)c(C(=O)O)cn(C3CC3)c12.Cl (stereo not shown) [Example 70, 7-(5-(aminomethyl)-4,5,6,7-tetrahydro-1-benzothien-2-yl)-1-cyclopropyl-8-methoxy-4-oxo-1,4-dihydro-3-quinolinecarboxylic acid hydrochloride]	0.03 mg/L	0.125 mg/L	0.015 mg/L	0.03 mg/L	0.06 mg/L
COc1c(-c2cc3c(s2)CC(N)CC3)ccc2c(=O)c(C(=O)O)cn(C3CC3)c12.O=C(O)C(F)(F)F (stereo not shown) [Example 71, 7-(6-amino-4,5,6,7-tetrahydro-1-benzothien-2-yl)-1-cyclopropyl-8-methoxy-4-oxo-1,4-dihydro-3-quinolinecarboxylic acid, trifluoroactic acid salt]	0.03 mg/L	0.06 mg/L	0.015 mg/L	0.03 mg/L	0.015 mg/L
COc1c(-c2cc3c(s2)CCCC3=NOCc2ccccc2)ccc2c(=O)c(C(=O)O)cn(C3CC3)c12 [Example 73]	0.06 mg/L	0.5 mg/L	0.03 mg/L	0.015 mg/L	0.06 mg/L
CNC1CCCc2sc(-c3ccc4c(=O)c(C(=O)O)cn(C5CC5)c4c3OC)cc21.Cl (stereo not shown) [Example 77, 1-cyclopropyl-8-methoxy-7-[4-(methylamino)-4,5,6,7-tetrahydro-1-benzothien-2-yl]-4-oxo-1,4-dihydro-3-quinolinecarboxylic acid hydrochloride]	0.125 mg/L	0.25 mg/L	0.06 mg/L	0.015 mg/L	0.03 mg/L
COc1c(-c2cc3c(s2)CCC(=NOCc2ccccc2)C3)ccc2c(=O)c(C(=O)O)cn(C3CC3)c12 [Example 79, 7-((5E/Z)-5-((benzyloxy)imino)-4,5,6,7-tetrahydro-1-benzothien-2-yl)-1-cyclopropyl-8-methoxy-4-oxo-1,4-dihydro-3-quinolinecarboxylic acid]	1 mg/L	4 mg/L	1 mg/L	0.125 mg/L	0.5 mg/L
COc1c(-c2cc3c(s2)CCCC3=NNC(N)=O)ccc2c(=O)c(C(=O)O)cn(C3CC3)c12 [Example 80, 7-((4E/Z)-4-((aminocarbonyl)hydrazono)-4,5,6,7-tetrahydro-1-benzothien-2-yl)-1-cylopropyl-8-methoxy-4-oxo-1,4-dihydro-3-quinolinecarboxylic acid]	> 64 mg/L	> 64 mg/L	0.06 mg/L	32 mg/L	0.03 mg/L
COc1c(-c2cc3c(s2)CCCC3N(C)C)ccc2c(=O)c(C(=O)O)cn(C3CC3)c12.Cl (stereo not shown) [Example 83, 1-cyclopropyl-7-(4-(dimethylamino)-4,5,6,7-tetrahydro-1-benzothien-2-yl)-8-methoxy-4-oxo-1,4-dihydro-3-quinolinecarboxylic acid hydrochloride]	0.5 mg/L	0.5 mg/L	0.25 mg/L	0.125 mg/L	0.125 mg/L
COc1c(-c2cc3c(s2)CCCC3=NNC(N)=S)ccc2c(=O)c(C(=O)O)cn(C3CC3)c12 [Example 84, 7-((4E/Z)-4-[(aminocarbothioyl)hydrazono)-4,5,6,7-tetrahydro-1-benzothien-2-yl)-1-cyclopropyl-8-methoxy-4-oxo-1,4-dihydro-3-quinolinecarboxylic acid]	0.25 mg/L	1 mg/L	0.125 mg/L	0.06 mg/L	0.25 mg/L
CNC(=S)NN=C1CCCc2sc(-c3ccc4c(=O)c(C(=O)O)cn(C5CC5)c4c3OC)cc21 [Example 85]	0.25 mg/L	0.5 mg/L	0.125 mg/L	0.03 mg/L	0.125 mg/L
COc1c(-c2cc3c(s2)CCCC3NS(C)(=O)=O)ccc2c(=O)c(C(=O)O)cn(C3CC3)c12 (stereo not shown) [Example 88, 1-cyclopropyl-8-methoxy-7-(4-((methylsulfonyl)amino)-4,5,6,7-tetrahydro-1-benzothien-2-yl)-4-oxo-1,4-dihydro-3-quinolinecarboxylic acid]	0.25 mg/L	1 mg/L	0.125 mg/L	0.015 mg/L	0.125 mg/L

The remaining lines, values ahead:

Antibacterial Activity (MIC's), B [1]	Antibacterial Activity (MIC's), D [2]	Antibacterial Activity (MIC's), E [3]	Antibacterial Activity (MIC's), A [4]	Antibacterial Activity (MIC's), F [5]	SMILES
0.125 mg/L	0.05 mg/L	0.06 mg/L	0.015 mg/L	0.25 mg/L	CON=C1CCCc2cc(-c3ccc4c(=O)c(C(=O)O)cn(C5CC5)c4c3OC)sc21 [Example 63, 1-cyclopropyl-8-methoxy-7-((7E/Z)-7-(methoxyimino)-4,5,6,7-tetrahydro-1-benzothien-2-yl)-4-oxo-1,4-dihydro-3-quinolinecarboxylic acid]
0.25 mg/L	2 mg/L	0.25 mg/L	0.03 mg/L	0.125 mg/L	CON=C1CCCc2sc(-c3ccc4c(=O)c(C(=O)O)cn(C5CC5)c4c3OC)cc21 [Example 64, 1-cyclopropyl-8-methoxy-7-((4E/Z)-4-(methoxyimino)-4,5,6,7-tetrahydro-1-benzothien-2-yl)-4-oxo-1,4-dihydro-3-quinolinecarboxylic acid]
0.5 mg/L	2 mg/L	0.5 mg/L	0.06 mg/L	0.5 mg/L	CON=C1CCc2cc(-c3ccc4c(=O)c(C(=O)O)cn(C5CC5)c4c3OC)sc2C1 [Example 66, 1-cyclopropyl-8-methoxy-7-((6E/Z)-6-(methoxyimino)-4,5,6,7-tetrahydro-1-benzothien-2-yl)-4-oxo-1,4-dihydro-3-quinolinecarboxylic acid]
0.25 mg/L	0.5 mg/L	0.06 mg/L	0.015 mg/L	0.125 mg/L	COc1c(-c2cc3c(s2)CCCC3=NN2CCCC2)ccc2c(=O)c(C(=O)O)cn(C3CC3)c12 [Example 74, 1-cyclopropyl-8-methoxy-4-oxo-7-((4E/Z)-4-(1-pyrrolidinylimino)-4,5,6,7-tetrahydro-1-benzothien-2-yl)-1,4-dihydro-3-quinolinecarboxylic acid]
0.06 mg/L	0.06 mg/L	0.03 mg/L	0.015 mg/L	0.03 mg/L	COc1c(-c2cc3c(s2)CCC(N)C3)ccc2c(=O)c(C(=O)O)cn(C3CC3)c12.Cl (stereo not shown) [Example 76, 7-(5-amino-4,5,6,7-tetrahydro-1-benzothien-2-yl)-1-cyclopropyl-8-methoxy-4-oxo-1,4-dihydro-3-quinolinecarboxylic acid hydrochloride]
1 mg/L	4 mg/L	2 mg/L	0.125 mg/L	0.25 mg/L	CCON=C1CCc2sc(-c3ccc4c(=O)c(C(=O)O)cn(C5CC5)c4c3OC)cc2C1 [Example 78, 1-cyclopropyl-7-((5E/Z)-5-(ethoxyimino)-4,5,6,7-tetrahydro-1-benzothien-2-yl)-8-methoxy-4-oxo-1,4-dihydro-3-quinolinecarboxylic acid]
